Test results taken from patent US6153589A, “2,3-epoxy alcohols, acids and derivatives as anti retroviral chemotherapeutic agents” (The United States of America as represented by the …, priority 1992, dated 2000).
Where two headings read alike, the source gives them in different places. Blank lines part the entries; values can stand above or below the molecule they belong to.

Legend:
porcine Renin = molecular target: T1, porcine Renin (Sus scrofa, UniProt A0A287APG1); assay: Porcine Renin cleavage of porcine tetradecapeptide (HPLC); format: biochemical; conditions: 0.5 μl of 50 μg/μl inhibitor in DMSO in 50 μl; pH 6.00, room temperature, 70 min; relative to uninhibited control
T1 construct: purchased Sigma
Source text: Renin Activity: Porcine Renin Cleavage of Porcine Tetradecapeptide
Proteolytic enzymes are ubiquitous in many living systems. Renin is an asparxyl protease found in mammals which is responsible for the regulation of blood pressure. Structural and functional similarities between Renin and retroviral proteases have been previously noted (Pearl, L. H., Taylor, W. R., (1987) Nature, 329, 351-354). Consequently, successful therapeutic inhibition of retroviral proteases depends on the ability of the inhibitor to inhibit the retroviral enzyme while having a greatly diminished effect on normally occurring enzymes like Renin. The failure to inhibit the desired enzyme selectively may have an adverse effect on normal biochemical functions. The similarity of Renin to retroviral proteases and its viral normal bodily function makes it an attractive system in which to examine inhibitory selectivity.
Renin activity was determined by a method similar to that described above for the HIV protease. A solution containing 0.37 m unit (0.5 μl of stock solution containing 0.75 m unit/μl) of porcine Renin (Sigma) was added to 5 μg of porcine angiotensinogen in 50 μl of 0.1 M citrate-phosphate buffer (pH 6.00) containing 0.25% NP-40. A DMSO solution containing the inhibitor (0.5 μl of a 50 μg/μl solution) was added and the reaction was allowed to incubate at room temperature for 70 min. The entire mixture was analyzed by HPLC chromatographic analysis was perforemd on a 4.6×250 mm Lichrosorb RP-18 column eluting with a gradient of 0-50% acetonitrile in 0.02 M KH2 Po4 (pH 4.7) over 30 min monitoring absorbance at 206 nm. Appearance of both the tetrapeptide and the decapeptide products may be monitored under these conditions. Enzyme activity is expressed as the amount of tetrapeptide produced relative to an uninhibited control, and are summarized in Table 3 below.

HIV1 IIIb = assay: microbe, parasite or virus in culture; format: cell-based; conditions: Human immunodeficiency virus 1, IIIB; for viability at 56.7 µg/mL: 56.7 ug/ml; for viability at 10 µg/mL: 10 ug/ml; for viability at 6.3 µg/mL: 6.3 ug/ml; for viability at 31.5 µg/mL: 31.5 ug/ml; for viability at 24.6 µg/mL: 24.6 ug/ml; for viability at 27.2 µg/mL: 27.2 ug/ml; for viability at 50 µg/mL: 50 ug/ml; for viability at 4.9 µg/mL: 4.9 ug/ml; for viability at 2.9 µg/mL: 2.9 ug/ml; for viability at 21 µg/mL: 21 ug/ml
Source text: In-vitro Screening Anti--HIV XTT Assay
This assay, which is available to the public by the National Cancer Institute, utilizes colorimetry based on the production of a colored formazin from a tetrazolium salt by viable cells, to develop a safe, rapid and quantitative measure of HIV cytopathology. The assay is a modification of the previously described screening method for the detection of anti-tumor drug cytotoxicity (D. A. Scudiero, et al, Cancer Res, 48, 4827-4833 (1988)). It involves the plating of susceptible human "host" cells with and without virus in microculture plates, adding various concentrations of the respective test compounds, incubating the plates for seven days, during which time infected, non-drug treated control cells are largely or totally destroyed by the virus. The number of remaining viable cells are determined utilizing a calorimetric endpoint. A beneficial antiviral effect is indicated by a response % grater than the virus kill %, with 100% being optimal.
Anti-viral effect: Response (Viable Cells, determined by colorometric
absorbance of formazan dye produced) as % of uninfected controls
Virus Source: HIV1 IIIb; C, Virus producing H9 cells; V, cell free virus
Virus Kill: Infected untreated cells as % of uninfected cell controls
*: Culture redosed with compound after 3 days

HIV-2 protease = assay: HIV protease cleavage of nonapeptide (HPLC); format: biochemical; conditions: 0.5 μl of 10 μg/μl inhibitor in DMSO per 10 μl reaction; pH 6.5, room temperature; pentapeptide product relative to DMSO control; sampled at ca. 16 and 40 hr (time not given)
Procedure: Activity Against HIV Protease
The assay for proteolyic activity is a modified version of that previously described by Copeland et al., Gene Anal. Tech., 5:109-115 (1988). For each assay to be performed 2 microliters of protease solution (ca. 100 ng) is added to 3 μg of nonapeptide (Val-Ser-Gln-Asn-Tyr-Pro-Ile-Val-Gln-NH2) in 8 μl of 200 mM sodium phosphate, 1 M NaCl, 5% glycerol, 0.25% Nonidet-40, at pH 6.5. This affords a stock solution containing 10 μl per number of reactions. This stock is aliquoted out in 10 μl portions to which 0.5 μl of DMSO (a control is run with each set of assays to compensate for minor experimental variations) or a DMSO solution containing 10 μg/μl of an inhibitor, i.e., any one of the compounds of the present invention, is added. The reactions were incubated at room temperature and 4 μl portions were removed at ca. 16 and 40 hr. intervals. HPLC analysis was performed on a 4.6×250 mm Lichrosorb RP-18 column eluted with a gradient of 0-40% acetonitrile in water (containing 0.05% TFA) over 30 min monitoring absorbance at 206 nm. Progress of the enzymatic cleavage was followed by monitoring the appearance of the pentapeptide (Val-Ser-Gln-Asn-Tyr-OH) cleavage product. The activity is expressed as the amount of the pentapeptide (Val-Ser-Gln-Asn-Tyr-OH) observed relative to the control reaction for that set of assays.
Inhibition of HIV-2 protease

T1 sequence (A0A287APG1 24-407): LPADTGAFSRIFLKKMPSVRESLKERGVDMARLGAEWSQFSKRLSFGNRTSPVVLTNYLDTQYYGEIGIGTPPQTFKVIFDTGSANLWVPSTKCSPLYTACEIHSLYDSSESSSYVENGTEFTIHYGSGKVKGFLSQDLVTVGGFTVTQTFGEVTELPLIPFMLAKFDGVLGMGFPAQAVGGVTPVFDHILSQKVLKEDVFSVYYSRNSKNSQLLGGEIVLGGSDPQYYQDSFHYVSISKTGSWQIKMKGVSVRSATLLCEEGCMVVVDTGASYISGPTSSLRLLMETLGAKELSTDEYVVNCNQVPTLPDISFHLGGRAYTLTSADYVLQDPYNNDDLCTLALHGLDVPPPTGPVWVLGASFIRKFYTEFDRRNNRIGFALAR

- Percent control (tetrapeptide produced) (porcine Renin): 51%
SMILES: CCCCCCCCCCC[C@@H]1O[C@H]1C(=O)O [Example 39, (2R-trans)-3-Undecyloxiranecarboxylic Acid]

SMILES: CCCCCCCOC[C@H]1O[C@H]1CO [Example 17]
- viability at 11.3 µg/mL (HIV1 IIIb; 168 h, read-out: Antiviral Effect (viable cells as % of uninfected controls), run 4, 11.3 ug/ml, source V (cell free virus), virus kill 40.0%): 57.6%
- viability at 56.7 µg/mL (HIV1 IIIb; 168 h, read-out: Antiviral Effect (viable cells as % of uninfected controls), run 5, source V (cell free virus), virus kill 57.0%): 102%
- viability at 56.7 µg/mL (HIV1 IIIb; 168 h, read-out: Antiviral Effect (viable cells as % of uninfected controls), run 6, source V (cell free virus), virus kill 26.0%): 69.2%
- viability at 1.97 µg/mL (HIV1 IIIb; 168 h, read-out: Antiviral Effect (viable cells as % of uninfected controls), run 7*, 1.97 ug/ml, source V (cell free virus), virus kill 28.0%, culture redosed with compound after 3 days): 15.8%
- viability at 113 µg/mL (HIV1 IIIb; H9, 168 h, read-out: Antiviral Effect (viable cells as % of uninfected controls), run 1, 113 ug/ml, source C (virus producing H9 cells), virus kill 10.0%): 31.1%
- viability at 56.7 µg/mL (HIV1 IIIb; H9, 168 h, read-out: Antiviral Effect (viable cells as % of uninfected controls), run 2, source C (virus producing H9 cells), virus kill 15.0%): 53.7%
- viability at 56.7 µg/mL (HIV1 IIIb; H9, 168 h, read-out: Antiviral Effect (viable cells as % of uninfected controls), run 3, source C (virus producing H9 cells), virus kill 15.0%): 83.1%
- Percent Control Cleavage of Nonapeptide HIV-1 Cleavage Site Fragment (HIV-2 protease): 66%

- Percent control (tetrapeptide produced) (porcine Renin): 86%
SMILES: CCCCCCCCC[C@H]1O[C@H]1C(=O)O [Example 21, (2R-cis)-3-Nonyloxiranecarboxylic Acid]
- viability at 10 µg/mL (HIV1 IIIb; 168 h, read-out: Antiviral Effect (viable cells as % of uninfected controls), run 8, source V (cell free virus), virus kill 23.0%): 94%
- viability at 6.3 µg/mL (HIV1 IIIb; 168 h, read-out: Antiviral Effect (viable cells as % of uninfected controls), run 9, source V (cell free virus), virus kill 19.0%): 25.7%
- viability at 31.5 µg/mL (HIV1 IIIb; 168 h, read-out: Antiviral Effect (viable cells as % of uninfected controls), run 10, source V (cell free virus), virus kill 53.0%): 75.3%
- viability at 24.6 µg/mL (HIV1 IIIb; 168 h, read-out: Antiviral Effect (viable cells as % of uninfected controls), run 11, source V (cell free virus), virus kill 57.0%): 64.3%
- viability at 31.5 µg/mL (HIV1 IIIb; 168 h, read-out: Antiviral Effect (viable cells as % of uninfected controls), run 12, source V (cell free virus), virus kill 27.0%): 62%
- viability at 24.6 µg/mL (HIV1 IIIb; 168 h, read-out: Antiviral Effect (viable cells as % of uninfected controls), run 13, source V (cell free virus), virus kill 40.0%): 88%
- viability at 27.2 µg/mL (HIV1 IIIb; 168 h, read-out: Antiviral Effect (viable cells as % of uninfected controls), run 14, source V (cell free virus), virus kill 18.0%): 25.7%
- viability at 27.2 µg/mL (HIV1 IIIb; 168 h, read-out: Antiviral Effect (viable cells as % of uninfected controls), run 15*, source V (cell free virus), virus kill 25.0%, culture redosed with compound after 3 days): 28.1%
- viability at 1 µg/mL (HIV1 IIIb; H9, 168 h, read-out: Antiviral Effect (viable cells as % of uninfected controls), run 1, 1 ug/ml, source C (virus producing H9 cells), virus kill 9.0%): 18.9%
- viability at 10 µg/mL (HIV1 IIIb; H9, 168 h, read-out: Antiviral Effect (viable cells as % of uninfected controls), run 2, source C (virus producing H9 cells), virus kill 22.0%): 27.3%
- viability at 6.3 µg/mL (HIV1 IIIb; H9, 168 h, read-out: Antiviral Effect (viable cells as % of uninfected controls), run 3, source C (virus producing H9 cells), virus kill 12.0%): 16.6%
- viability at 31.5 µg/mL (HIV1 IIIb; H9, 168 h, read-out: Antiviral Effect (viable cells as % of uninfected controls), run 4, source C (virus producing H9 cells), virus kill 14.0%): 19.6%
- viability at 24.6 µg/mL (HIV1 IIIb; H9, 168 h, read-out: Antiviral Effect (viable cells as % of uninfected controls), run 5, source C (virus producing H9 cells), virus kill 14.0%): 21.6%
- viability at 31.5 µg/mL (HIV1 IIIb; H9, 168 h, read-out: Antiviral Effect (viable cells as % of uninfected controls), run 6, source C (virus producing H9 cells), virus kill 12.0%): 10.7%
- viability at 24.6 µg/mL (HIV1 IIIb; H9, 168 h, read-out: Antiviral Effect (viable cells as % of uninfected controls), run 7, source C (virus producing H9 cells), virus kill 18.0%): 13%

SMILES: CCCCCCCCC[C@@H]1O[C@@H]1CO [Example 12, (2R-cis)-3-Nonyloxirane Methanol]
- viability at 50 µg/mL (HIV1 IIIb; 168 h, read-out: Antiviral Effect (viable cells as % of uninfected controls), run 8, source V (cell free virus), virus kill 27.0%): 56.9%
- viability at 4.9 µg/mL (HIV1 IIIb; 168 h, read-out: Antiviral Effect (viable cells as % of uninfected controls), run 9, source V (cell free virus), virus kill 53.0%): 82.4%
- viability at 2.9 µg/mL (HIV1 IIIb; 168 h, read-out: Antiviral Effect (viable cells as % of uninfected controls), run 10, source V (cell free virus), virus kill 55.0%): 82.9%
- viability at 49 µg/mL (HIV1 IIIb; 168 h, read-out: Antiviral Effect (viable cells as % of uninfected controls), run 11, 49 ug/ml, source V (cell free virus), virus kill 30.0%): 54.9%
- viability at 2.9 µg/mL (HIV1 IIIb; 168 h, read-out: Antiviral Effect (viable cells as % of uninfected controls), run 12, source V (cell free virus), virus kill 36.0%): 62.2%
- viability at 21 µg/mL (HIV1 IIIb; 168 h, read-out: Antiviral Effect (viable cells as % of uninfected controls), run 13, source V (cell free virus), virus kill 19.5%): 53.4%
- viability at 21 µg/mL (HIV1 IIIb; 168 h, read-out: Antiviral Effect (viable cells as % of uninfected controls), run 14, source V (cell free virus), virus kill 24.0%): 98.7%
- viability at 10 µg/mL (HIV1 IIIb; H9, 168 h, read-out: Antiviral Effect (viable cells as % of uninfected controls), run 1, source C (virus producing H9 cells), virus kill 6.0%): 75.1%
- viability at 10 µg/mL (HIV1 IIIb; H9, 168 h, read-out: Antiviral Effect (viable cells as % of uninfected controls), run 2, source C (virus producing H9 cells), virus kill 27.0%): 71.3%
- viability at 50 µg/mL (HIV1 IIIb; H9, 168 h, read-out: Antiviral Effect (viable cells as % of uninfected controls), run 3, source C (virus producing H9 cells), virus kill 16.0%): 32.1%
- viability at 4.9 µg/mL (HIV1 IIIb; H9, 168 h, read-out: Antiviral Effect (viable cells as % of uninfected controls), run 4, source C (virus producing H9 cells), virus kill 16.0%): 31.6%
- viability at 2.9 µg/mL (HIV1 IIIb; H9, 168 h, read-out: Antiviral Effect (viable cells as % of uninfected controls), run 5, source C (virus producing H9 cells), virus kill 15.0%): 23.1%
- viability at 4.9 µg/mL (HIV1 IIIb; H9, 168 h, read-out: Antiviral Effect (viable cells as % of uninfected controls), run 6, source C (virus producing H9 cells), virus kill 11.0%): 16.7%
- viability at 29 µg/mL (HIV1 IIIb; H9, 168 h, read-out: Antiviral Effect (viable cells as % of uninfected controls), run 7, 29 ug/ml, source C (virus producing H9 cells), virus kill 11.0%): 15.7%
- Percent Control Cleavage of Nonapeptide HIV-1 Cleavage Site Fragment (HIV-2 protease): 96%
